pIC50: −log10 of the molar value. Entries after “also recorded” stand apart in the source; their conditions may differ.

One experiment deals with chloroquine/mefloquine-resistant Dd2 strain of Plasmodium falciparum. The experiment is classed as cell-based. The note with it: Dd2 strain of P. falciparum.
As to `C/C(=C/CC/C(C)=C/C(=O)C[C@]1(C)CCc2cc(O)cc(C)c2O1)CO` [Compound 2, (3E,7Z)-9-hydroxy-1-[(S)-6-hydroxy-2,8-dimethylchroman-2-yl]-4,8-dimethylnona-3,7-dien-2-one], the “antiplasmodial activity (in words)” value was “weak antiplasmodial activity; also recorded: most potent biological activity among these compounds”.

Regarding `CC1=CCCC(C)(CC(=O)C[C@]2(C)CCc3cc(O)cc(C)c3O2)OC1` (single isomer, unassigned) [Compound 6, 1-[(S or R)-2,6-dimethyl-2,3,4,7-tetrahydrooxepin-2-yl]-3-[(S)-6-hydroxy-2,8-dimethylchroman-2-yl]propan-2-one], the “antiplasmodial activity (in words)” value is reported as “weak antiplasmodial activity”.

With `COc1cc(C)c2c(c1)CC[C@@](C)(CC(=O)/C=C(\C)CC/C=C(\C)CO)O2` [Compound 5, (3E,7E)-9-hydroxy-1-[(S)-6-methoxy-2,8-dimethylchroman-2-yl]-4,8-dimethylnona-3,7-dien-2-one], the “antiplasmodial activity (in words)” value is reported as “weak antiplasmodial activity; also recorded: moderately active”.

Take `CC1=CCCC(C)(CC(=O)C[C@]2(C)CCc3cc(O)cc(C)c3O2)OC1` (single isomer, unassigned) [Compound 7, 1-[(R or S)-2,6-dimethyl-2,3,4,7-tetrahydrooxepin-2-yl]-3-[(S)-6-hydroxy-2,8-dimethylchroman-2-yl]propan-2-one]: the “antiplasmodial activity (in words)” value is “weak antiplasmodial activity”.

Take `C/C(=C\CC/C(C)=C/C(=O)C[C@]1(C)CCc2cc(O)cc(C)c2O1)CO` [Compound 1, (3E,7E)-9-hydroxy-1-[(S)-6-hydroxy-2,8-dimethylchroman-2-yl]-4,8-dimethylnona-3,7-dien-2-one]: the “antiplasmodial activity (in words)” value is “inactive”.

Still in this experiment, the particulars now being: read-out: IC50 against P. falciparum Dd2; chloroquine-resistant Dd2 strain; 72-hour treatment.
A word on the pIC50: it is the negative decadic logarithm of the IC50, by convention in mol/L. Turning to “(R)-2-[(3E,7E)-9-hydroxy-4,8-dimethylnona-3,7-dien-1-yl]-2,8-dimethyl-2H-chromen-6-ol [Compound 9]”, the pIC50 is under 3.93.

Values taken from paper PMC5866173 (Journal of natural products, 2017).
